How the values were obtained:
[1] = tested on: alternative pathway of the complement system; test: Activation of the alternative pathway of the complement system (hemolysis of rabbit blood cells in normal human serum); type: biochemical; details: for % consumption of complement component C3: 37° C., 60 minutes
Protocol: The effect of spermidine on the activation of the alternative pathway of the complement system was investigated in accordance with the method of Platts-Mills and Ishizaka (Platt-Mills, T. A. E. and Ishizaka, K.: Activation of the alternative pathway of human complement by rabbit cells. J. Immune. 113, 348-358, 1974).
Spermidine was added to normal human serum in EGTA buffer solution, and the mixture was heated at 37° C. for 60 minutes. Rabbit blood cells were then added to the mixture. The degree of hemolysis was measured with a spectrophotometer at 412 nm to evaluate the effect of spermidine.

IMC carcinoma = test: Antitumor effect on IMC carcinoma transplanted subcutaneously into CDF1 mice; type: in vivo; details: for Weight of tumor ± S.D.: 10 times on alternative days, day 30, in mg (unit assumed)
Protocol: (§1) The pharmacological effects of spermidine will be illustrated by reference to the following experimental examples, in which spermidine was administered as its phosphate dissolved in physiological saline.
(§2) (a) The antitumor effect of spermidine was investigated on IMC carcinoma successively transplanted into CDF1 mice and on S180 sarcoma transplanted into ICR mice. 1×10^6 tumor cells of each of the above type were transplanted subcutaneously into such mice (Day 0). From Day 1 onwards, spermidine was intraperitoneally injected a total of 10 times (once daily on alternative days). Thirty days after transplantation of tumor cells, the tumor was removed and weighed to evaluate the effect of spermidine.

[2] = Toxicity given intravenously to mice; type: in vivo; details: 250 mg/kg intravenously
Protocol: Spermidine used in this invention has a very low toxicity. It is not toxic at a dose of 250 mg/kg when given intravenously to mice.

S-180 sarcoma = test: Antitumor effect on S180 sarcoma transplanted subcutaneously into ICR mice; type: in vivo; details: for Weight of tumor ± S.D.: 10 times on alternative days, day 30, in mg (unit assumed)
Protocol: as §1, §2

[3] = tested on: delayed-type hypersensitivity (DTH) to sheep erythrocytes; test: Effect on delayed-type hypersensitivity (DTH) to sheep erythrocytes, sole swelling; type: in vivo, CDF1 mice
Protocol: as §1
In accordance with the method of Lagrange et al. (Lagrange, P. H., Mackaness, G. B., and Miller, T. E.: Influence of dose and route of antigen injection on the immunological induction of T cells. J. Exp. Med. 139, 528-542, 1974), the effect of spermidine on cellular immunity was investigated using as its index the degree of delayed-type hypersensitivity (DTH) to sheep erythrocytes as the antigen. CDF1 mice (8 weeks old, female) were intravenously injected with 10^5 or 10^8 sheep erythrocytes for immunization, and at the same time, were intraperitoneally injected with spermidine. Four days later, the soles of the mice were subcutaneously injected with 10^8 sheep erythrocytes to induce the DTH reaction. Twenty four hours later, swellings on the soles were measured with a caliper to evaluate the effect of spermidine.

With `NCCCCNCCCN` [Spermidine, spermidine] the “% consumption of complement component C3” value ([1]; 2 mg/ml) was 0%, the “% consumption of complement component C3” value ([1]; 4 mg/ml) was 66.1% and the “% consumption of complement component C3” value ([1]; 8 mg/ml) was 83.6%. The “activation of the alternative pathway of complement” value ([1]; 4 to 8 mg/ml) was “clearly activates the alternative pathway of complement”, the “% inhibition (weight of tumor)” value (IMC carcinoma; 0.05 mg/kg/day i.p.) was 26% and the “Weight of tumor ± S.D.” value (IMC carcinoma; 0.05 mg/kg/day i.p.) was 5112 ± 2263. The “% inhibition (weight of tumor)” value (IMC carcinoma; 0.5 mg/kg/day i.p.) was 58%, the “Weight of tumor ± S.D.” value (IMC carcinoma; 0.5 mg/kg/day i.p.) was 2893 ± 964 and the “% inhibition (weight of tumor)” value (IMC carcinoma; 5 mg/kg/day i.p.) was 40%. The “Weight of tumor ± S.D.” value (IMC carcinoma; 5 mg/kg/day i.p.) was 4125 ± 1852, the “% inhibition (weight of tumor)” value (IMC carcinoma; 50 mg/kg/day i.p.) was 44% and the “Weight of tumor ± S.D.” value (IMC carcinoma; 50 mg/kg/day i.p.) was 3886 ± 1351. For the same compound, the toxicity [2] was “not toxic”, the “% inhibition (weight of tumor)” value (S-180 sarcoma; 0.05 mg/kg/day i.p.) was 9% and the “Weight of tumor ± S.D.” value (S-180 sarcoma; 0.05 mg/kg/day i.p.) was 5193 ± 1522. The “% inhibition (weight of tumor)” value (S-180 sarcoma; 0.5 mg/kg/day i.p.) was 35%, the “Weight of tumor ± S.D.” value (S-180 sarcoma; 0.5 mg/kg/day i.p.) was 3689 ± 1331 and the “% inhibition (weight of tumor)” value (S-180 sarcoma; 5 mg/kg/day i.p.) was 63%. For the same compound, the “Weight of tumor ± S.D.” value (S-180 sarcoma; 5 mg/kg/day i.p.) was 2087 ± 1040, the “% inhibition (weight of tumor)” value (S-180 sarcoma; 50 mg/kg/day i.p.) was 43% and the “Weight of tumor ± S.D.” value (S-180 sarcoma; 50 mg/kg/day i.p.) was 3245 ± 1106. For the same compound, the “effect on normal cellular immunity” value ([3]; 5 to 0.005 mg/kg) was “enhances normal cellular immunity”, the “Swelling on the sole” value ([3]; 10^5 sheep erythrocytes, 0.01 μg/mouse (0.0005) i.p.) was 5.8 ± 0.4 × 0.1 mm and the “% increase (swelling on the sole)” value ([3]; 10^5 sheep erythrocytes, 0.01 μg/mouse (0.0005) i.p., untreated 10^5 group = 100) was 91%. The “Swelling on the sole” value ([3]; 10^5 sheep erythrocytes, 0.1 μg/mouse (0.005) i.p.) was 9.4 ± 0.7 × 0.1 mm, the “% increase (swelling on the sole)” value ([3]; 10^5 sheep erythrocytes, 0.1 μg/mouse (0.005) i.p., untreated 10^5 group = 100) was 147% and the “Swelling on the sole” value ([3]; 10^5 sheep erythrocytes, 1 μg/mouse (0.05) i.p.) was 8.5 ± 0.7 × 0.1 mm. The “% increase (swelling on the sole)” value ([3]; 10^5 sheep erythrocytes, 1 μg/mouse (0.05) i.p., untreated 10^5 group = 100) was 133%, the “Swelling on the sole” value ([3]; 10^5 sheep erythrocytes, 10 μg/mouse (0.5) i.p.) was 8.9 ± 0.7 × 0.1 mm and the “% increase (swelling on the sole)” value ([3]; 10^5 sheep erythrocytes, 10 μg/mouse (0.5) i.p., untreated 10^5 group = 100) was 139%. For the same compound, the “Swelling on the sole” value ([3]; 10^5 sheep erythrocytes, 100 μg/mouse (5) i.p.) was 8.1 ± 1.1 × 0.1 mm, the “% increase (swelling on the sole)” value ([3]; 10^5 sheep erythrocytes, 100 μg/mouse (5) i.p., untreated 10^5 group = 100) was 126% and the “Swelling on the sole” value ([3]; 10^5 sheep erythrocytes, 1000 μg/mouse (50) i.p.) was 7.1 ± 0.3 × 0.1 mm. For the same compound, the “% increase (swelling on the sole)” value ([3]; 10^5 sheep erythrocytes, 1000 μg/mouse (50) i.p., untreated 10^5 group = 100) was 111%, the “effect of enhancing cellular immunity” value ([3]; 10^5 sheep erythrocytes, 0.01 or 1000 μg/mouse) was “no enhancing effect” and the “effect of enhancing cellular immunity” value ([3]; 10^5 sheep erythrocytes, 0.1 to 100 μg/mouse) was “significant effect of enhancing cellular immunity”. The “Swelling on the sole” value ([3]; 10^8 sheep erythrocytes, 0.01 μg/mouse (0.0005) i.p.) was 4.5 ± 0.2 × 0.1 mm, the “% increase (swelling on the sole)” value ([3]; 10^8 sheep erythrocytes, 0.01 μg/mouse (0.0005) i.p., untreated 10^5 group = 100, untreated 10^8 group = 48) was 70% and the “Swelling on the sole” value ([3]; 10^8 sheep erythrocytes, 0.1 μg/mouse (0.005) i.p.) was 5.3 ± 0.3 × 0.1 mm. For the same compound, the “% increase (swelling on the sole)” value ([3]; 10^8 sheep erythrocytes, 0.1 μg/mouse (0.005) i.p., untreated 10^5 group = 100, untreated 10^8 group = 48) was 83%, the “Swelling on the sole” value ([3]; 10^8 sheep erythrocytes, 1 μg/mouse (0.05) i.p.) was 6.3 ± 0.3 × 0.1 mm and the “% increase (swelling on the sole)” value ([3]; 10^8 sheep erythrocytes, 1 μg/mouse (0.05) i.p., untreated 10^5 group = 100, untreated 10^8 group = 48) was 98%. The “Swelling on the sole” value ([3]; 10^8 sheep erythrocytes, 10 μg/mouse (0.5) i.p.) was 6.4 ± 0.06 × 0.1 mm, the “% increase (swelling on the sole)” value ([3]; 10^8 sheep erythrocytes, 10 μg/mouse (0.5) i.p., untreated 10^5 group = 100, untreated 10^8 group = 48) was 100% and the “Swelling on the sole” value ([3]; 10^8 sheep erythrocytes, 100 μg/mouse (5.0) i.p.) was 6.4 ± 0.4 × 0.1 mm. The “% increase (swelling on the sole)” value ([3]; 10^8 sheep erythrocytes, 100 μg/mouse (5.0) i.p., untreated 10^5 group = 100, untreated 10^8 group = 48) was 100%, the “Swelling on the sole” value ([3]; 10^8 sheep erythrocytes, 1000 μg/mouse (50) i.p.) was 7.4 ± 0.5 × 0.1 mm and the “% increase (swelling on the sole)” value ([3]; 10^8 sheep erythrocytes, 1000 μg/mouse (50) i.p., untreated 10^5 group = 100, untreated 10^8 group = 48) was 116%. The “effect of strengthening cellular immunity” value ([3]; 10^8 sheep erythrocytes, 0.1 to 1000 μg/mouse, vs 10^8 control group) was “marked effect of strengthening cellular immunity”, the “DTH reaction compared with group immunized with 10^5 erythrocytes” value ([3]; 10^8 sheep erythrocytes, 10 to 1000 μg/mouse) was “comparable” and the “effect on suppression of cellular immunity by suppressor cells” value ([3]; 50 to 0.5 mg/kg) was “inhibit the suppression of cellular immunity by suppressor cells”.
